For one test, the system named is A. baumannii (BAA-1709). Kind of test: Checkerboard / broth microdilution MIC. Conditions: for MIC of rifampicin at 1/2 × MIC of adjuvant: rifampicin with the labelled adjuvant at 1/2 × its MIC; for MIC of rifampicin at 1/4 × MIC of adjuvant: rifampicin with the labelled adjuvant at 1/4 × its MIC; for MIC of rifampicin at 1/8 × MIC of adjuvant: rifampicin with the labelled adjuvant at 1/8 × its MIC; for Change of antibiotic MIC as polymer concentration increased from 1/16×MICp to ½×MICp: with example polycarbonate 200 (table 500). It counts as cell-based, Acinetobacter baumannii. From the text: To evaluate antibacterial activity of antimicrobial polymer-antibiotic 306 combination therapies, the checkerboard method was used to create chart 400. By using this method, the minimum inhibitory concentration (“MIC”) of antibiotics 306, antimicrobial polymers (e.g., characterized by the first chemical structure 100 and/or the second chemical structure 102), and/or antibiotics 306/antimicrobial polymers (e.g., characterized by the first chemical structure 100 and/or the second chemical structure 102) combination at varying polymer concentrations can be determined. MIC was measured based on the broth microdilution method. 50 microliters (“μL”) of the example polycarbonate 200 at a serious of concentrations (micrograms per milliliter (μg/mL)) was added into a 96-well plate. […] Microbes (e.g., S. aureus, A. baumannii, E. coli, and/or P. aeruginosa) at exponential growth phases were diluted with […] (“MHB”) to about 10^5 colony forming units (“CFU”) per milliliter (CFU/mL), and 100 μL of diluted microbes were added into each well of the 96-well plate with 100 μL of antimicrobial polymer-antibiotic 306 mixture. The 96-well plate was incubated at 37 degrees Celsius (“° C.”) under shaking of 100 revolutions per minute (“rpm”) for about 18 to 20 hours. The concentration at which there was no bacterial growth observed by naked eyes or a microplate reader at 600 nanometers (nm) was recorded as the MIC. The checkerboard experiments were performed three times for each antimicrobial polymer-antibiotic 306 combination.
On the technique in general: Broth dilution looks for growth in wells or tubes with falling amounts of substance.

Test [1] concerns A. baumannii (e.g., ATCC BAA-1709). Kind of test: Bacterial count after 18 hours of treatment. It is filed as cell-based, Acinetobacter baumannii. Conditions: treatment for 18 hours; polymer 3.9 or 7.8 μg/mL (graph 1002). The protocol: The results shown in graph 1002 were achieved after treatment for 18 hours.
Further, FIG. 11 illustrates a diagram of example, non-limiting graph 1102, graph 1110, and/or graph 1118, which can depict that one or more combination therapies comprising one or more antimicrobial polymers (e.g., characterized by the first chemical structure 100, such as example polycarbonate 200, and/or the second chemical structure 102) and one or more antibiotics 306 can show stronger synergistic bactericidal effect than traditional combination therapies as evidenced by the bacterial count after 18 hours of treating A. baumannii (e.g., ATCC BAA-1709).

Test [2] deals with A. baumannii BAA-1709. In words: Killing kinetics (CFU counting) under combination treatments. It is filed as cell-based, Acinetobacter baumannii. Conditions: rifampicin 0.008 μg/mL plus the labelled adjuvant at ½×MIC; up to 24 h. From the text:
To compare the efficiency of an antimicrobial polymer/rifampicin combination and an antimicrobial polymer/polymyxin combination, the CFU of A. baumannii BAA-1709 under different combination treatments were studied. […] The results of CFU counting are presented as mean±standard deviation of triplicate samples.

Test [3] relates to antibiotic-resistant strains of bacteria (e.g., A. baumannii). In words: MIC against susceptible and antibiotic-resistant strains (table 700). It counts as cell-based, Acinetobacter baumannii. From the text:
In addition to antibiotic-susceptible bacteria, antibiotic-resistant strains of bacteria (e.g., indicated with a star in FIG. 7) were also employed to study the effect of antibiotic 306/example polycarbonate 200 combination on antibacterial activity.

The next test deals with K. pneumoniae. Kind of test: Concentrations (1/2 MIC, MBC) for 18 h bactericidal plate test. It is filed as cell-based. Conditions: Klebsiella pneumoniae, used together with example polycarbonate 200 at ½ MIC, read-out: minimum bactericidal concentration (“MBC”). From the text:
(§1) FIG. 13 illustrates a diagram of example, non-limiting table 1300 and/or table 1302, which can depict the synergistic effect of one or more combination therapies, which can comprise one or more antimicrobial polymers (e.g., characterized by the first chemical structure 100 and/or the second chemical structure 102) in combination with one or more antibiotics 306, against various bacteria (e.g., Gram-negative bacteria and/or Gram-positive bacteria) including antibiotic-resistant strains. Repetitive description of like elements employed in other embodiments described herein is omitted for sake of brevity.
(§2) Further, FIG. 13 illustrates a diagram of example, non-limiting photos 1304 of three-component plates with bacteria treated by example polycarbonate 200, rifampicin, and/or a combination thereof for 18 hours. […] The data and/or photos 1304 depicted in FIG. 13 can be representative of three biological replicates, with the “*” denoting antibiotic-resistant strains of bacteria.

The next test concerns A. baumannii strains. The description is as above. It counts as cell-based. Conditions: Acinetobacter baumannii; all the A. baumannii strains; used together with example polycarbonate 200 at ½ MIC; read-out: minimum bactericidal concentration (“MBC”).
From the text: as §1, §2

The subject of the next test is E. aerogenes. Described as above. It is filed as cell-based. The conditions noted are these: Klebsiella aerogenes, used together with example polycarbonate 200 at ½ MIC, read-out: minimum bactericidal concentration (“MBC”).
From the text: as §1, §2

The next test concerns E. coli. Kind of test: Checkerboard / broth microdilution MIC. It counts as cell-based, Escherichia coli. From the text: To evaluate antibacterial activity of antimicrobial polymer-antibiotic 306 combination therapies, the checkerboard method was used to create chart 400. By using this method, the minimum inhibitory concentration (“MIC”) of antibiotics 306, antimicrobial polymers (e.g., characterized by the first chemical structure 100 and/or the second chemical structure 102), and/or antibiotics 306/antimicrobial polymers (e.g., characterized by the first chemical structure 100 and/or the second chemical structure 102) combination at varying polymer concentrations can be determined. MIC was measured based on the broth microdilution method. 50 microliters (“μL”) of the example polycarbonate 200 at a serious of concentrations (micrograms per milliliter (μg/mL)) was added into a 96-well plate. […] Microbes (e.g., S. aureus, A. baumannii, E. coli, and/or P. aeruginosa) at exponential growth phases were diluted with […] (“MHB”) to about 10^5 colony forming units (“CFU”) per milliliter (CFU/mL), and 100 μL of diluted microbes were added into each well of the 96-well plate with 100 μL of antimicrobial polymer-antibiotic 306 mixture. […] The concentration at which there was no bacterial growth observed by naked eyes or a microplate reader at 600 nanometers (nm) was recorded as the MIC. […]

For test [4], the system named is A. baumannii BAA-1709. It counts as cell-based, Acinetobacter baumannii. The conditions noted are these: for Delay of resistance of the bacteria against the antibiotic: in the presence of example polycarbonate 200 at ¼×MICp; for MIC of pure antibiotic over 30 generations: antibiotic only. Here is the method: To monitor development of antibiotic 306 resistance in A. baumannii, antibiotics 306 at sub-lethal doses were used in combination with the example polycarbonate 200 to repeatedly treat A. baumannii BAA-1709. With concentrations of the example polycarbonate 200 fixed at ¼ or ½×MIC, the MIC of antibiotics 306 was measured by the broth microdilution method. At half of the antibiotic 306 MIC, the survived bacteria, which reached logarithmic growth phase, were collected for MIC measurement of the subsequent passage. The development of antibiotic 306 resistance was monitored for 30 passages and the MIC of the antibiotics 306 at ¼ or ½×MIC of the antimicrobial polymer (e.g., characterized by the first chemical structure 100 and/or the second chemical structure 102) was recorded for each passage. The resistance development of antibiotics 306 only and polymer only was also evaluated over 30 passages.

Setting [5] is: repeated sub-MIC exposure, no polymer.

“Also recorded” adds a separate entry of the source.

As to colistin, in the test on A. baumannii (BAA-1709), the “MIC of rifampicin at 1/2 × MIC of adjuvant” value stood at 0.06 µg/mL, the “MIC of rifampicin at 1/4 × MIC of adjuvant” value was 2.0 µg/mL and the “MIC of rifampicin at 1/8 × MIC of adjuvant” value turned out to be 3.9 µg/mL. In addition, the “Effective dose of colistin as concentration of example polycarbonate 200 increases” value in test [1] is “reduced”. Moreover, the “Bactericidal activity of rifampicin combined with adjuvant (CFU over time)” value in the test on A. baumannii BAA-1709 [2] is on record as “no bactericidal activity over 24 h; also recorded: no bactericidal effect up to 24 hours”.

Regarding Polymyxin B, in the test on A. baumannii (BAA-1709), the “MIC of rifampicin at 1/2 × MIC of adjuvant” value was found to be 0.5 µg/mL, the “MIC of rifampicin at 1/4 × MIC of adjuvant” value is 2.0 µg/mL and the “MIC of rifampicin at 1/8 × MIC of adjuvant” value is 3.9 µg/mL. Further, the “Bactericidal activity of rifampicin combined with adjuvant (CFU over time)” value with A. baumannii BAA-1709 [2] is on record as “no bactericidal activity over 24 h; also recorded: no bactericidal effect up to 24 hours”.

As to `CO[C@H]1/C=C/O[C@@]2(C)Oc3c(C)c(O)c4c(O)c(c(/C=N/N5CCN(C)CC5)c(O)c4c3C2=O)NC(=O)/C(C)=C\C=C\[C@H](C)[C@H](O)[C@@H](C)[C@@H](O)[C@@H](C)[C@H](OC(C)=O)[C@@H]1C` [rifampicin], in the test on A. baumannii (BAA-1709) (with example polycarbonate 200), the “MIC reduction compared with pure rifampicin” value is given as “over 2000 folds”. For the same compound, in the test on A. baumannii (BAA-1709) (with example polycarbonate 200 at ¼×MICp (e.g., 4 μg/mL)), the “MIC of antibiotic in the presence of the antimicrobial polymer at ¼×MICp” value was found to be 0.13 µg/mL. Also, in the test with A. baumannii (BAA-1709) (with example polycarbonate 200 at ½×MICp (e.g., 8 μg/mL)), the “MIC of antibiotic in the presence of the antimicrobial polymer at ½×MICp” value amounted to 0.002 µg/mL. Further, the “MIC of rifampicin at antimicrobial polymer concentration of ¼×MICp” value in test [3] (antibiotic-resistant strains, with example polycarbonate 200) came out at 0.5 µg/mL. For the same compound, the “MIC reduction of rifampicin with polycarbonates of first chemical structure 100” value in [3] (both susceptible and antibiotic-resistant A. baumannii strains) is “up to 2048 fold”. Moreover, the figures for the MBC in the test on K. pneumoniae, in the test with A. baumannii strains and in the test on E. aerogenes were 0.5 µg/mL, 0.015 µg/mL and 2 µg/mL, respectively. Besides, the “MIC reduction at ½×MICp of the antimicrobial polymer” value in the test with E. coli (with example polycarbonate 200 at ½×MICp) was “over 500 fold”. Moreover, in the test on A. baumannii BAA-1709 [4], the “Delay of resistance of the bacteria against the antibiotic” value was 17 generations.

On to `CC1(C)S[C@@H]2[C@H](NC(=O)Cc3ccccc3)C(=O)N2[C@H]1C(=O)O` [Penicillin G, Benzylpenicillin], for which, in the test on A. baumannii (BAA-1709) (antibiotic alone, no polymer), the “MIC of antibiotics 306 w/o polymer” value was 62.5 µg/mL. Further, in the test on A. baumannii (BAA-1709), the “Change of antibiotic MIC as polymer concentration increased from 1/16×MICp to ½×MICp” value is recorded as “significantly reduced”. Besides, the “MIC of antibiotics 306 at 1/2 × MICp” value in the test with A. baumannii (BAA-1709) (with example polyionene 206 at 1/2 × MICp (MICp 7.8 μg/mL)) is 7.8 µg/mL. For the same compound, the “MIC of antibiotics 306 at 1/4 × MICp” value with A. baumannii (BAA-1709) (with example polyionene 206 at 1/4 × MICp (MICp 7.8 μg/mL)) worked out at 31.3 µg/mL. In addition, the “MIC of antibiotics 306 at 1/8 × MICp” value in the test with A. baumannii (BAA-1709) (with example polyionene 206 at 1/8 × MICp (MICp 7.8 μg/mL)) came out at 62.5 µg/mL. Also, the “MIC of antibiotics 306 at 1/16 × MICp” value in the test with A. baumannii (BAA-1709) (with example polyionene 206 at 1/16 × MICp (MICp 7.8 μg/mL)) was found to be 62.5 µg/mL. Besides, in the test on A. baumannii BAA-1709 [4], the “MIC of pure antibiotic over 30 generations” value was “increased” and the “Delay of resistance of the bacteria against the antibiotic” value worked out at 22 generations. In the test with A. baumannii BAA-1709 [4] (setting [5]), the “MIC of pure antibiotic at generation 5” value turned out to be 125 µg/mL and the “MIC of pure antibiotic at generation 30” value amounted to 1000 µg/mL. Moreover, in the test with A. baumannii BAA-1709 [4] (starting value), the “MIC of pure antibiotic before resistance evolution” value was determined as 62.5 µg/mL.

Consider `CC[C@H]1OC(=O)[C@H](C)[C@@H](O[C@H]2C[C@@](C)(OC)[C@@H](O)[C@H](C)O2)[C@H](C)[C@@H](O[C@@H]2O[C@H](C)C[C@H](N(C)C)[C@H]2O)[C@](C)(O)C[C@@H](C)CN(C)[C@H](C)[C@@H](O)[C@]1(C)O` [azithromycin], for which the “Change of antibiotic MIC as polymer concentration increased from 1/16×MICp to ½×MICp” value with A. baumannii (BAA-1709) is “significantly reduced”. The “Effect of example polycarbonate 200 on antibiotic potency” value with E. coli is listed as “enhance the potency”. In the test with A. baumannii BAA-1709 [4], the “MIC of pure antibiotic over 30 generations” value is listed as “increased”. Besides, the “MIC of antibiotic over 30 generations in the presence of example polycarbonate 200 at ¼×MICp” value in the test with A. baumannii BAA-1709 [4] (polymer fixed at ¼×MICp) is listed as “did not change”.

The values are drawn from patent US11766451B2, “Utilizing polymers and antibiotics to enhance antimicrobial activity and inhibit antibiotic resistance” (International Business Machines Corporation, priority 2018, dated 2023).
